Where two headings read alike, the source gives them in different places.
Columns and labels:
[1] = tested on: A375; assay: MTT cytotoxicity (IC50), A375; format: cell-based; conditions: Homo sapiens, A-375
Experimental: (§1) Compound 17932 was tested in four of these cell lines, while the remaining compounds were tested in all of these cell lines. All cell lines were maintained in RPMI-1640 tissue culture medium (TCM, supplemented with antibiotics and 10% fetal bovine serum) and cultured at 37° C. in humidified air containing 5% CO2. To assess the antiproliferative effects of the test compounds, 172 μL of tumor cell suspension (1.45×10^4 cells/ml) were added to each well of a 96-well plate and incubated for 24 h at 37° C. in 5% CO2 in air to allow cells to adhere. Seven 2-fold drug dilutions in TCM/DMSO were performed in triplicate in separate 96-well plates and 28 μL was transferred to the wells containing tumor cells (200 μL final volume/0.1% DMSO). Plates were incubated for 72 h and cell viability was determined by adding 50 μL of warm TCM containing 5 mg/mL MTT (3-[4,5-dimethylthiazol-2-yl]-2,5-diphenyltetrazolium bromide) to each well and incubating for 1 h at 37° C. Plates were processed and the absorbances of the resulting solutions were measured by a plate reader at 570 nm. […] (GraphPad Prism version 4.00 for Windows). Studies were conducted by Taxolog, Inc., Tallahassee, Fla.

[2] = tested on: MALME-3; assay: MTT cytotoxicity (IC50), MALME-3; format: cell-based; conditions: Homo sapiens, 72 h, read-out: IN Vitro IC50 (nm) Malme3
Experimental: as §1

[3] = tested on: HT29; assay: MTT cytotoxicity (IC50), HT29; format: cell-based; conditions: Homo sapiens, HT-29, 72 h, read-out: IN Vitro IC50 (nm) HT29
Experimental: as §1

[4] = tested on: human HT29 colon carcinoma xenografts
[5] = tested on: TK-10; assay: MTT cytotoxicity (IC50), TK-10; format: cell-based; conditions: Homo sapiens, 72 h, read-out: IN Vitro IC50 (nm) TK10
Experimental: as §1

[6] = tested on: SNB-19; assay: MTT cytotoxicity (IC50), SNB-19; format: cell-based; conditions: Homo sapiens, 72 h, read-out: IN Vitro IC50 (nm) SNB19
Experimental: as §1

[7] = tested on: A549; assay: MTT cytotoxicity (IC50), A549; format: cell-based; conditions: Homo sapiens, 72 h, read-out: IN Vitro IC50 (nm) A549
Experimental: as §1

[8] = tested on: 786-0; assay: MTT cytotoxicity (IC50), 786-0; format: cell-based; conditions: Homo sapiens
Experimental: as §1

[9] = tested on: SK-MEL-28; assay: MTT cytotoxicity (IC50), SK-MEL-28; format: cell-based; conditions: Homo sapiens, 72 h, read-out: IN Vitro IC50 (nm) ske-mel28
Experimental: as §1

[10] = tested on: HOP-18; assay: MTT cytotoxicity (IC50), HOP-18; format: cell-based; conditions: Homo sapiens, 72 h, read-out: IN Vitro IC50 (nm) HOP18
Experimental: as §1

[11] = tested on: PANC-1; assay: MTT cytotoxicity (IC50), PANC-1; format: cell-based; conditions: Homo sapiens, 72 h, read-out: IN Vitro IC50 (nm) Panc
Experimental: as §1

[12] = tested on: OVCAR4; assay: MTT cytotoxicity (IC50), OVCAR4; format: cell-based; conditions: Homo sapiens, OVCAR-4, 72 h, read-out: IN Vitro IC50 (nm) OVCAR4
Experimental: as §1

[13] = tested on: DLD-1; assay: MTT cytotoxicity (IC50), DLD-1; format: cell-based; conditions: Homo sapiens
Experimental: as §1

[14] = tested on: HT29 human tumor xenografts; assay: HT29 xenograft study e139 (Example 23); format: in vivo, nude mice
[15] = tested on: HCT116; assay: MTT cytotoxicity (IC50), HCT116; format: cell-based; conditions: Homo sapiens, HCT-116, 72 h, read-out: IN Vitro IC50 (nm) HCT116
Experimental: as §1, with “All” for “Compound 17932 was tested in four of these cell lines, while the remaining compounds were tested in all of these cell lines. All”

[16] = MTT, 72 h, read-out: IN Vitro IC50 (nm) DLD1
[17] = Resistance MDR1+, read-out: DLD1 Colon (Table 4, quantity not named; IC50 values as Table 2)

Compound: CC(=O)O[C@H]1C(=O)[C@@]2(C)[C@H]([C@H](OC(=O)c3ccccc3)[C@]3(O)C[C@H](OC(=O)[C@H](O)[C@@H](NC(=O)c4ccccc4)c4ccccc4)C(C)=C1C3(C)C)[C@]1(OC(C)=O)CO[C@@H]1C[C@@H]2O [Paclitaxel, paclitaxel, reference compound]
- IC50 ([1]; MTT, 72 h, read-out: IN Vitro IC50 (nm) A375): 8 nM
- IC50 ([1]; Resistance MRP9, read-out: A375 Melanoma (Table 4, quantity not named; IC50 values as Table 2)): 8 nM
- IC50 [2]: 6.5 nM
- IC50 [3]: 2.8 nM
- antitumor activity ([4]; 30 mg/kg q4d×4): relatively weak activity
- D 38 TTE ([4]; mouse, in vivo): 27.5 ± 1.9 (6) days
- Number of Death NTR ([4]; mouse, in vivo): 0
- Number of Death TR ([4]; mouse, in vivo): 0
- IC50 [5]: 4.8 nM
- IC50 [6]: 6.1 nM
- IC50 [7]: 3.8 nM
- IC50 ([8]; MTT, 72 h, read-out: IN Vitro IC50 (nm) 786-0): > 10 nM
- IC50 ([8]; Resistance MDR1+, read-out: 786-0 Renal (Table 4, quantity not named; IC50 values as Table 2)): > 10 nM
- IC50 [9]: 5.4 nM
- IC50 [10]: 7.2 nM
- IC50 [11]: 4.1 nM
- IC50 [12]: 2.9 nM
- IC50 [13, 16]: > 10 nM
- IC50 [13, 17]: 41 nM

Compound: CC(=O)O[C@@]12CO[C@@H]1C[C@H](O)[C@@]1(C)C(=O)[C@H](OC(=O)C3CC3)C3=C(C)[C@@H](OC(=O)[C@H](O)[C@@H](NC(=O)OC4CCCC4)c4cccs4)C[C@@](O)([C@@H](OC(=O)c4ccccc4)C12)C3(C)C (stereo partly shown) [Compound 17932]
- IC50 [3]: 0.9 nM
- MTV (Day 61) ([14]; 20 mg/kg i.v. q4d×4): 78 mm^3
- PR responses ([14]; 20 mg/kg i.v. q4d×4, six mice): 5
- Day 51 mm^3 (tumor size) ([14]; 20 mg/kg iv q4d × 4): 99.7 mm^3
- Day 54 mm^3 (tumor size) ([14]; 20 mg/kg iv q4d × 4): 109.4 mm^3
- Max. BW Loss %; Day ([14]; 20 mg/kg iv q4d × 4): −19.3%; Day 16
- Number of Death NTR ([14]; 20 mg/kg iv q4d × 4, N=6): 0
- Number of Death TR ([14]; 20 mg/kg iv q4d × 4, N=6): 0
- IC50 [15]: 0.6 nM
- IC50 [11]: 1.2 nM
- IC50 [13, 16]: 1.4 nM
- IC50 [13, 17]: 1.4 nM

Reference: US8242166B2, “C(10) ethyl ester and C(10) cyclopropyl ester substituted taxanes” (Florida State University Research Foundation, Inc., priority 2008, dated 2012)
